Data on nine compounds can be found in PMC10979453, “Antioxidant and Angiotensin-Converting Enzyme Inhibitory Activity of Faba Bean-Derived Peptides After In Vitro Gastrointestinal Digestion: Insight into Their Mechanism of Action” (Journal of Agricultural and Food Chemistry, 2024).

Experiment [1] has as its target T1, Angiotensin-converting enzyme (ACE) from rabbit lung (Oryctolagus cuniculus, UniProt P12822).
T1 construct: Angiotensin-converting enzyme (ACE) from rabbit lung (A6778); purchased Sigma-Aldrich A6778; host or cells: rabbit lung (tissue-derived enzyme)
T1 sequence (P12822 34-1310): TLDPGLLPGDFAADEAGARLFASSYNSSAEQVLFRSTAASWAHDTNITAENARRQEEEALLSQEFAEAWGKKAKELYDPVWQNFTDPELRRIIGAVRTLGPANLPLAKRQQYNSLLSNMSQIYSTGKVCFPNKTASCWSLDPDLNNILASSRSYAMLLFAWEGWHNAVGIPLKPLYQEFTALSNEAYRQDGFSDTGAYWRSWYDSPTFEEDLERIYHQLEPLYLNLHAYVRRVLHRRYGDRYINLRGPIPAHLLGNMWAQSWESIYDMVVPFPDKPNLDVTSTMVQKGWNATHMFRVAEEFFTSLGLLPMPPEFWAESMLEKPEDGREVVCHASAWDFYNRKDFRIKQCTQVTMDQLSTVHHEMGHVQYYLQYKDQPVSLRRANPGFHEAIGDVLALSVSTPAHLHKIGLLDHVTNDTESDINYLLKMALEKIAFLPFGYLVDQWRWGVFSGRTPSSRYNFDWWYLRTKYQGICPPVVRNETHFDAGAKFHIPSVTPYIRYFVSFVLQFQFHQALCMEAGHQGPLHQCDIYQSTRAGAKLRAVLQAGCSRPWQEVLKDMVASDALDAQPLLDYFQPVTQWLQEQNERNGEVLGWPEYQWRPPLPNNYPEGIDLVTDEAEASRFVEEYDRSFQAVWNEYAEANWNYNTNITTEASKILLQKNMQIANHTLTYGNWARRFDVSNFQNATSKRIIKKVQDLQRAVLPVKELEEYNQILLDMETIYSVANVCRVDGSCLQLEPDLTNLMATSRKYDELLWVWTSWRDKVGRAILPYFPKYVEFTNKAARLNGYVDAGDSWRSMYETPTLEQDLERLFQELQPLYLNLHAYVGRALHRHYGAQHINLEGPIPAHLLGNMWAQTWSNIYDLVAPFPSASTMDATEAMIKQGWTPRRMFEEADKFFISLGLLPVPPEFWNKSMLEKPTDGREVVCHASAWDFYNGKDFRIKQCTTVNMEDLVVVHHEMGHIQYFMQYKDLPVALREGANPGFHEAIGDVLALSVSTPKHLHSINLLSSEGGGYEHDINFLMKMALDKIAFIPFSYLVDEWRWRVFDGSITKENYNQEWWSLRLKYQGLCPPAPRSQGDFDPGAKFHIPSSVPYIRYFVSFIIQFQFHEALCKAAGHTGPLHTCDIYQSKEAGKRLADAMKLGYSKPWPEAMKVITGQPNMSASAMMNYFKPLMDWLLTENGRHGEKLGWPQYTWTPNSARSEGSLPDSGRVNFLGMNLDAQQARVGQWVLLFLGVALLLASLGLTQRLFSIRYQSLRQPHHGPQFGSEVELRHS
As to the kind of experiment: ACE inhibition kinetics (Lineweaver-Burk and secondary plots). Particulars: HHL 0.5–2 mM, read-out: inhibition constant (Ki). In kind it is biochemical. The procedure: A kinetic study was performed following the procedure of Barbana et al. (2011)[23] to determine the inhibition pattern of four faba bean peptides with ACE inhibition activity (VIPTEPPH, VIPTEPPHA, VVIPTEPPHA, and VVIPTEPPH). The initial rate of reaction was measured with different HHL (0.5–2 mM) and peptides concentrations. Lineweaver–Burk double reciprocal plots were built to identify the inhibition pattern.
The ACE inhibition pattern of VIPTEPPH, VIPTEPPHA, VVIPTEPPHA, and VVIPTEPPH was assessed through kinetic experiments. The initial velocity of reaction was measured at different substrate (0.5–2 mM) and peptide concentrations, and Lineweaver–Burk double reciprocal plots were built to identify the inhibition pattern. […] The inhibitor binding site is, therefore, located outside the enzyme active site. The loss of ACE activity in the presence of peptides can, therefore, be explained by conformational changes caused by peptide binding rather than competition for the active site.
The inhibition constant (Ki) was calculated from secondary plots for each peptide. The secondary plots were constructed by plotting the Lineweaver–Burk curve slope against the peptide concentration. The Ki value was calculated from the negative intercept on the X-axis of the secondary plot. […] These Ki values are nearly identical to the IC50, confirming the noncompetitive inhibition pattern. The minor differences in the IC50 and Ki values can be explained by experimental imprecision.

Experiment [2] addresses T1, Angiotensin-converting enzyme (ACE) from rabbit lung. Nature of the experiment: in vitro ACE inhibitory activity (HHL substrate). In kind it is biochemical. Particulars: for IC50: mean ± SD; for inhibition at 10000 µM: peptide concentration 10 mM. The text has this: Angiotensin-converting enzyme (ACE) from rabbit lung (A6778), N-hippuryl–His–Leu hydrate (HHL) (H1635), and captopril were purchased from Sigma-Aldrich (St. Louis, MO, USA).
ACE from rabbits was used for in vitro testing, since rabbit and human ACE are nearly homologous and their active sites are highly similar.[24]

For experiment [3] the following is noted: free amino acids; cited from earlier work.
A short description of experiment [4]: ABTS free radical scavenging assay. Particulars: for ABTS activity, times lower than Trolox: range over the named peptides.
Description: (§1) For the DPPH, ABTS, and iron chelating assays, the peptides were first screened at a high dose (10 mM). […] The EC50 values were calculated using a four-parameter logistic curve regression, and Trolox was used as a positive control. For the ORAC assay, the results were expressed as μmol of Trolox equivalent per mM of peptides.
The nature of experiment [5]: Oxygen Radical Absorption Capacity (ORAC) assay. Particulars: for ORAC activity per mg of peptides: as given in the text; for ORAC activity, times higher than Trolox: on a molar basis, range over the named peptides. The protocol:
2,2-Diphenyl-1-picrylhydrazyl (DPPH), 2,2′-azinobis(3-ethylbenzothiazoline-6-sulfonic acid) (ABTS), Oxygen Radical Absorption Capacity (ORAC), and the iron chelating assays were performed following the methods of Orona-Tamayo, Valverde, Nieto-Rendón, and Paredes-López (2015),[17] Re, Pellegrini, Proteggente, Pannala, Yang, and Rice-Evans (1999),[18] Tomer, McLeman, Ohmine, Scherer, Murray, and O’Neill (2007),[19] and of Orona-Tamayo et al. (2015),[17] respectively, as described in Martineau-Côté, Achouri, Wanasundara et al. (2022).[16] For the DPPH, ABTS, and iron chelating assays, the peptides were first screened at a high dose (10 mM). Peptides with antioxidant activity were then tested at different concentrations (0.1–10 mM) to evaluate the dose–response effect. The results were expressed as the half-maximal effective concentration (EC50), which was defined as the required peptide concentration, leading to 50% scavenging or chelating activity. The EC50 values were calculated using a four-parameter logistic curve regression, and Trolox was used as a positive control. For the ORAC assay, the results were expressed as μmol of Trolox equivalent per mM of peptides.

Experiment [6] is described as follows: DPPH free radical scavenging assay. Particulars: mean ± SD; tested at 0.1–10 mM. In general terms: DPPH is a stable violet radical that fades when it is reduced.
Description: as §1
Setting [7] is: read-out: ACE Inhibition (IC50 μM).
[8] abbreviates: read-out: ACE Inhibition (IC50 μg/mL) (converted).

Like-named read-outs stand apart in the source and are kept apart here. Peptide text beside a SMILES is read from it.

The term Ki denotes the equilibrium dissociation constant of an inhibitor or competing ligand from its target. What is called inhibition is the change of the read-out against control, counted positive when it falls. High values mean a strong effect, low ones a weak effect. For orientation: EC50 means the concentration that produces a half-maximal response.

Regarding `CC[C@H](C)[C@H](NC(=O)[C@@H](N)C(C)C)C(=O)N1CCC[C@H]1C(=O)N[C@H](C(=O)N[C@@H](CCC(=O)O)C(=O)N1CCC[C@H]1C(=O)N1CCC[C@H]1C(=O)N[C@@H](Cc1c[nH]cn1)C(=O)N[C@@H](C)C(=O)O)[C@@H](C)O` [VIPTEPPHA] (H-VIPTEPPHA-OH), the Ki in experiment [1] stood at 107 µM. Further, the IC50 is 123 ± 5 µM in experiment [2] (setting [7]) and 123 µM in experiment [2] (setting [8]). Also, in experiment [2], the inhibition at 10000 µM was 100%.

With `CC[C@H](C)[C@H](NC(=O)[C@@H](N)C(C)C)C(=O)N1CCC[C@H]1C(=O)N[C@H](C(=O)N[C@@H](CCC(=O)O)C(=O)N1CCC[C@H]1C(=O)N1CCC[C@H]1C(=O)N[C@@H](Cc1c[nH]cn1)C(=O)O)[C@@H](C)O` [VIPTEPPH] (H-VIPTEPPH-OH), in experiment [1], the Ki is 87 µM. Moreover, the values for the IC50 in experiment [2] (setting [7]) and in experiment [2] (setting [8]) were 90 ± 10 µM and 91.1 µM, respectively. The same compound displayed an inhibition at 10000 µM in experiment [2] of 100%.

For the compound `CC[C@H](C)[C@H](NC(=O)[C@@H](NC(=O)[C@@H](N)C(C)C)C(C)C)C(=O)N1CCC[C@H]1C(=O)N[C@H](C(=O)N[C@@H](CCC(=O)O)C(=O)N1CCC[C@H]1C(=O)N1CCC[C@H]1C(=O)N[C@@H](Cc1c[nH]cn1)C(=O)N[C@@H](C)C(=O)O)[C@@H](C)O` [VVIPTEPPHA] (H-VVIPTEPPHA-OH), the Ki in experiment [1] stood at 54 µM. In addition, the IC50 in experiment [2] (setting [7]) is 50 ± 5 µM; in experiment [2] (setting [8]), 50 µM. Also, in experiment [2], the inhibition at 10000 µM is 100%.

Turning to `CC[C@H](C)[C@H](NC(=O)[C@@H](NC(=O)[C@@H](N)C(C)C)C(C)C)C(=O)N1CCC[C@H]1C(=O)N[C@H](C(=O)N[C@@H](CCC(=O)O)C(=O)N1CCC[C@H]1C(=O)N1CCC[C@H]1C(=O)N[C@@H](Cc1c[nH]cn1)C(=O)O)[C@@H](C)O` [VVIPTEPPH] (H-VVIPTEPPH-OH), in experiment [1], the Ki stood at 45 µM. In addition, the IC50 in experiment [2] (setting [7]) is 43 ± 1 µM; in experiment [2] (setting [8]) it was 43.5 µM. In addition, in experiment [2], the inhibition at 10000 µM was 100%.

Regarding `N[C@@H](Cc1c[nH]cn1)C(=O)O` [histidine], in experiment [3], the ORAC activity is on record as 78 μMol TE eq/mM.

`N[C@@H](Cc1c[nH]c2ccccc12)C(=O)O` [tryptophan]: the ORAC activity in experiment [3] is 2790 μMol TE eq/mM.

On to `N[C@@H](Cc1ccc(O)cc1)C(=O)O` [tyrosine], for which the ORAC activity in experiment [3] is recorded as 1020 μMol TE eq/mM.

Turning to “TETWNPNHPE [synthesized faba bean-derived peptide, parent protein legumin B]”, the “ABTS activity, times lower than Trolox” value in experiment [4] is recorded as 8 to 66 times. In addition, the ORAC activity in experiment [5] (as given in the abstract) is recorded as 2.84 ± 0.08 mM Trolox equivalent/mM. Also, in experiment [5], the “ORAC activity per mg of peptides” value is recorded as 2.3 μMol Trolox eq/mg and the “ORAC activity, times higher than Trolox” value is 2.5 to 2.8 times.

Consider “TETWNPNHPEL [synthesized faba bean-derived peptide, parent protein legumin B]”, for which a half-maximal effect in experiment [4] (mean ± SD, tested at 0.1–10 mM) (EC50) was put at 500 ± 200 µM. The “ABTS activity, times lower than Trolox” value in experiment [4] is recorded as 8 to 66 times. In addition, in experiment [6], the EC50 worked out at 2100 ± 100 µM. For the same compound, in experiment [5], the “ORAC activity per mg of peptides” value turned out to be 1.9 μMol Trolox eq/mg and the “ORAC activity, times higher than Trolox” value was in the range of 2.5 to 2.8 times.
